Laboratory results reported in patent publication US20100129297A1, “USE OF AN AQUEOUS GRAPE SEED EXTRACT COMBINED WITH AT LEAST ONE FLUORINE SALT TO COMBAT THE FORMATION OR ACCUMULATION OF DENTAL BIOFILM AND COMPOSITIONS COMPRISING SAID COMBINATION” (priority 2007, published 2010).

Key:
[1] = system: glucosyl transferases (GTF); experiment: Inhibition of glucosyl transferases (GTF): initial reaction rate, released fructose (DNS test); type: biochemical, Streptococcus sobrinus ATCC 33478
Method: A strain of Streptococcus sobrinus ATCC 33478 is placed in 1 liter of BHI (brain heart infusion) medium enriched in glucose (10 g/L final concentration) in anaerobiosis at 37° C. for 18 hours. This bacterial medium, the pH of which was brought back to 6.5 by means of a NaOH 1N solution, is then centrifuged for 30 minutes at 8,000 rpm at 4° C. The glucosyl transferase, present in the supernatant is concentrated by precipitation with ammonium sulfate. The latter (50% w/saturation v) is gradually added to the supernatant held at 4° C. under stirring for 30 minutes. The mixture is then centrifuged at 8,000 rpm, 4° for 30 minutes. […]
(§1) The results are expressed as inhibition percentages relatively to control solutions (ultra pure water): • the inhibition percentage of the initial rate of the enzymatic reaction (noted as “fructose” in the following table of results) on the one hand • the inhibition percentage of formation of insoluble glucan produced after 24 hours of incubation at 37° C. […]
Dextran interferes on the whole of the colorimetric methods for assaying proteins, because dextran particles diffract light and generate parasitic absorbance. The amount of glucosyl transferase is therefore measured by its activity under standard conditions. […]

[2] = system: glucosyl transferases (GTF); experiment: Inhibition of glucosyl transferases (GTF): amount of synthesized insoluble glucan (weighing); type: biochemical, Streptococcus sobrinus ATCC 33478; settings: 24 hours at 37° C.
Method: A strain of Streptococcus sobrinus ATCC 33478 is placed in 1 liter of BHI (brain heart infusion) medium enriched in glucose (10 g/L final concentration) in anaerobiosis at 37° C. for 18 hours. This bacterial medium, the pH of which was brought back to 6.5 by means of a NaOH 1N solution, is then centrifuged for 30 minutes at 8,000 rpm at 4° C. The glucosyl transferase, present in the supernatant is concentrated by precipitation with ammonium sulfate. The latter (50% w/saturation v) is gradually added to the supernatant held at 4° C. under stirring for 30 minutes. The mixture is then centrifuged at 8,000 rpm, 4° for 30 minutes. The pellet, rich in glucosyl transferase, is then taken up with phosphate/potassium K2HPO4 buffer (10 mM, pH 10.5), dialyzed (MWC 6-8000; width 14.6 mm) for 16 hours and then frozen at −20° C. This is the solution of purified GTF. […]
as §1
The amount of soluble glucan is measured 24 hours after the beginning of the enzymatic reaction. […]

[3] = system: Porphyromonas; experiment: Preventive action on an experimental buccal biofilm model, Porphyromonas count; type: cell-based, Porphyromonas gingivalis ATCC 33277; settings: fluorinol compared with NaF, each combined with grape seed extract
Method: The bacterial strains used are: • Streptococcus mutans ATCC 25175 • Streptococcus sobrinus ATCC 33478 • Porphyromonas gingivalis ATCC 33277
These different bacteria, cultivated in their specific medium, are inoculated into 10 mL of universal culture medium FUM (Fluid Universal Medium, composition of the medium in Annex 1), and then incubated in anaerobiosis at 37° C. for 24 hours.
After checking the purity with a microscope, the series of cultures are independently adjusted to OD550 1.0±0.05 (i.e. about 10^7 cells per milliliter) by dilutions with FUM. […]
Serial dilutions to 1:10 of this cell suspension are carried out until concentrations of 10^−2 and 10^−4 are obtained, and then 50 μL of these dilutions are spread over the 4 specific geloses used: mitis salivarius agar, MRS, wilkins chalgren agar (WCA) and blood geloses. The geloses are then placed in anaerobiosis at 37° C. for 48-72 hours and the then the number of formed colonies for each species is counted. […]
The number of colonies formed after 48-72 hours of incubation of the molecules with bacterial biofilms is expressed, after counting, in Colony Forming Units per analyzed Biofilm (or CFU/Biofilm) by the formula:
[Number of counted colonies×dilution factor (10^2 to 10^4)]/Inoculum volume (0.05 mL) […]

For `F.OCc1cccnc1` [fluorinol, 3-pyridyl methanol hydrofluoride], the “inhibition percentage of the initial enzymatic reaction (fructose)” value ([1]; fluorinol alone 0.68%) was 10.3%, the “inhibition percentage of the initial enzymatic reaction (fructose)” value ([1]; fluorinol alone 1.02%) was 20.6% and the “synthesis of insoluble glucan” value ([2]; fluorinol alone 0.68%) was “inefficient”. The “synthesis of insoluble glucan” value ([2]; fluorinol alone 1.02%) was “inefficient” and the “effect of potentialization of the grape seed extract on Porphyromonas” value [3] was “larger than that of NaF”.
